The EC50 is the concentration that produces a half-maximal response.

Entries after “also recorded” stand apart in the source; their conditions may differ.

The test system of series [1] is cAMP-dependent protein kinase (PKA). Type of series: cell-based.
For series [2], the target named is cAMP-dependent kinase type I (FICRhR) (Bos taurus, UniProt P00514). Type of series: biochemical. From the text:
When PKA is doubly labeled with fluorescein on its catalytic subunits and rhodamine on its regulatory subunits to produce FICRhR, fluorescence energy transfer from the fluorescein to rhodamine occurs in the holoenzyme complex but is disrupted upon activation and dissociation of the subunits. The change in the ratio of fluorescein to rhodamine emissions parallels the increase in kinase activity and can be nondestructively imaged in single cells. REF-52 fibroblasts were microinjected with FICRhR and emission ratio images recorded at room temperature as previously described (27).

Series [3] can be described thus: Membrane permeability. It is filed as in vitro ADME.
The subject of series [4] is intestinal cell line T84. Description: cells. Type of series: cell-based. The following applies: for EC50: 0.2 h, T84, ISC 12 min after addition, read-out: EC50 (chloride secretion). An excerpt: A convenient test system is the intestinal cell line T84, in which chloride secretion can be continuously monitored by mounting confluent monolayers of cells in Ussing chambers (42).

The subject of series [5] is angelfish melanophores. The series can be described thus: Pigment dispersion in fish dermal melanophores. It is filed as cell-based, angelfish (Pterophyllum scalare). The following applies: for reversibility of dispersion: removal of compound and epinephrine. The method, then:
Melanophores permit a visual single-cell assay for the ability of cAMP analogs to enter cells and mimic cAMP actions. The melanophores were isolated on angelfish scales and the epidermis was stripped off. […] Dispersion was just detectable at 1 μM and half-maximal near 10 μM (FIG. 3A). […] The preceding examples are summarized in (64).

For series [6], the target named is T1, IP3 receptor (IP3 R) (Bos taurus, UniProt Q9TU34).
T1 construct: from tissue; host or cells: bovine cerebellum microsomal fractions
T1 sequence (Q9TU34 whole entry): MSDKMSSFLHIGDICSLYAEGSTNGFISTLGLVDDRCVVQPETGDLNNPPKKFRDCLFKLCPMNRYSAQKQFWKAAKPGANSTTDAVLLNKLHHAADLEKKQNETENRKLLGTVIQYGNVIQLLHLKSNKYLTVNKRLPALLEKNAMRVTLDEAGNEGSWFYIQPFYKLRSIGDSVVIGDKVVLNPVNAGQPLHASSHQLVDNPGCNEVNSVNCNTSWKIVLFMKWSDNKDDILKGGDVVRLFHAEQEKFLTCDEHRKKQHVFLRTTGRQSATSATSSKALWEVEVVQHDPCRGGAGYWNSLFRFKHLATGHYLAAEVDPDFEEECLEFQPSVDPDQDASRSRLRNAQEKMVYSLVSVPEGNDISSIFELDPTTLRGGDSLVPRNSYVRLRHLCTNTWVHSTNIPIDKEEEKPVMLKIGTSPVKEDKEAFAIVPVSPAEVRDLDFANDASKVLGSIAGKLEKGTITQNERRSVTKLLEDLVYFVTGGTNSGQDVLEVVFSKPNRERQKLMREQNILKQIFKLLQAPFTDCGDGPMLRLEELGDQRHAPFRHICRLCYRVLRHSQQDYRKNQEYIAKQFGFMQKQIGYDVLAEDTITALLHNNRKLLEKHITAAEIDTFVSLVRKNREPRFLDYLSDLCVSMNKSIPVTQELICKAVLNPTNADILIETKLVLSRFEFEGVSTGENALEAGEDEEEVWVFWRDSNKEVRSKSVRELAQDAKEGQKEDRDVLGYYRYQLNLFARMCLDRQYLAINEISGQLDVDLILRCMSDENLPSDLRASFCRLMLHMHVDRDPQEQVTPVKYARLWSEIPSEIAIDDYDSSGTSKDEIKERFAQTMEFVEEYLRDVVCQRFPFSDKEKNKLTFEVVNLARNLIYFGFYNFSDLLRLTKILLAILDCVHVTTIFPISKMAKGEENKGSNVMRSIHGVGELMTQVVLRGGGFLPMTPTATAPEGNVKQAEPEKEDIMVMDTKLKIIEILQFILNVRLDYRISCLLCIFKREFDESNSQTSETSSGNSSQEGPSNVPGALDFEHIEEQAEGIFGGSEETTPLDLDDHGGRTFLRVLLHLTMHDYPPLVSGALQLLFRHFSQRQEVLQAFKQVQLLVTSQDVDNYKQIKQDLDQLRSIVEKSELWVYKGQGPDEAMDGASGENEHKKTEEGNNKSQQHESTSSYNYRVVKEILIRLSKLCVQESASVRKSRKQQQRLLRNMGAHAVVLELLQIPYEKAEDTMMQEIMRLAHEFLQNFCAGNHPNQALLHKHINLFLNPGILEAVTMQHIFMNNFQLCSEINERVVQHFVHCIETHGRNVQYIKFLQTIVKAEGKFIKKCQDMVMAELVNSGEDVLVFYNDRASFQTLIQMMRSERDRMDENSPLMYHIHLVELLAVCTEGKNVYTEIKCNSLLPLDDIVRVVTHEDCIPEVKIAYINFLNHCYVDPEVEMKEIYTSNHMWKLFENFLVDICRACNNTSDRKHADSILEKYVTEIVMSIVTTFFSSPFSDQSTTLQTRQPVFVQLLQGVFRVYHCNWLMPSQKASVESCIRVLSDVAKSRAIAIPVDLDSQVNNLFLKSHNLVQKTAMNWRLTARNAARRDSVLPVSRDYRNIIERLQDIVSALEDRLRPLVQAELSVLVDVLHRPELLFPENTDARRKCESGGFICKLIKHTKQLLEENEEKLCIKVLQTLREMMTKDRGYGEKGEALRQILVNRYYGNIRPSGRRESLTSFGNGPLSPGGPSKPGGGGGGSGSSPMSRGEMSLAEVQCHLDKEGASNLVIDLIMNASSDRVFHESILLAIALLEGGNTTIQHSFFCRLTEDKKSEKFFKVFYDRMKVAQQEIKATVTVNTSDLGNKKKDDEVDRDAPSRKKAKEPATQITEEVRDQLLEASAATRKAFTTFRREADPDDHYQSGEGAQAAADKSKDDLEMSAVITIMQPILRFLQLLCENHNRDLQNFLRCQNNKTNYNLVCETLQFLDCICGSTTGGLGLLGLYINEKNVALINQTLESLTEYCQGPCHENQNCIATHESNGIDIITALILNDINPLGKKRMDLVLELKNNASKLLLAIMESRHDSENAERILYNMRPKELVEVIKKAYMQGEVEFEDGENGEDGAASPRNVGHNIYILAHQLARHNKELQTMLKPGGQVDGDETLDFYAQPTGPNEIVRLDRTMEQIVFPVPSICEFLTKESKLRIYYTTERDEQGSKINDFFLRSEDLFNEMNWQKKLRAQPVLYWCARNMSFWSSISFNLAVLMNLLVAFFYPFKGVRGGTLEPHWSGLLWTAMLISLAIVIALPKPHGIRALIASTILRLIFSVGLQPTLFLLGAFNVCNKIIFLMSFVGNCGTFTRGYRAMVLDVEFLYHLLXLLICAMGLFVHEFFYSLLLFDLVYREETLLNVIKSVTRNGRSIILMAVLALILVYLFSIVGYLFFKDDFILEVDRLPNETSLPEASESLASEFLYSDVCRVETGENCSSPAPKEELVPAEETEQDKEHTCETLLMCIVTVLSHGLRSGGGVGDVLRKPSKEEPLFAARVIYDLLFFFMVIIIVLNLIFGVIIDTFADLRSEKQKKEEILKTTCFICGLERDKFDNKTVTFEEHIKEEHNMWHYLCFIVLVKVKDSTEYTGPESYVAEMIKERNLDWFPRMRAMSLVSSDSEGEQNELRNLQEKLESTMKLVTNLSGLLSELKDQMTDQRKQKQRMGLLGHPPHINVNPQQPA
The series can be described thus: [3H]IP3 binding assay, bovine cerebellum microsomal fractions. The method, then:
Bovine cerebellum microsomal fractions, which are a rich source of IP3 binding protein, were prepared and used for [^3 H]IP3 binding assay. […] The IC50 of D-IP3 was about 8 nM.
At this point, the crude photolysis product from 100 pmol V-16 was equivalent in binding activity to 32 pmol of authentic IP3. […] The absolute stereochemistry of V-3 and its diastereomer was thus assigned.

Series [7] has as its system phosphatase. The series can be described thus: Intracellular retention and metabolic (phosphatase) stability. Type of series: in vitro ADME. As to the method:
In human embryonic kidney cells (HEK cells), the extracellular IP3 -CPM was washed away after the cells had been loaded with 50 μM of IP3 -CPM for 20 minutes. […] Cells in the same dish which had not been exposed to UV light were kept in the dark for over 6 hours. […] However, pretreatment of IP3 -CPM with acetic acid will unmask the 3-hydroxyl and enable the intracellular phosphorylation of delivered IP3.

Series [8] relates to 1321N1 astrocytoma cells. The series can be described thus: [Ca2+]i response before and after UV uncaging, fluo-3. Type of series: cell-based. As to the method:
(b) Same experiment as (a) except done in Ca^2+ free medium (DPBS, O Ca^2+, 0.5 mM EGTA). UV exposure of the cells treated with IP3 -CPM still gave the same response, showing that the [Ca^2+ ]i increase resulted from the release of Ca^2+ from internal stores. […] The cells were loaded with fluo-3/AM. During the experiment the cells were bathed in HBS buffered with 20 mM Hepes at pH 7.4 and supplemented with 2 g/L glucose.
The [Ca^2+ ]i was monitored using the calcium indicator fluo-3 rather than fura-2 to keep the excitation wavelength of the indicator (490 nm) far from the uncaging wavelength (360 nm) of DMNB group. […] Compared to the photolyzing set-up (direct illumination by a hand mercury lamp) used for the IP3 -binding assay, the optical throughput from the source lamp to the specimen is much higher in a microscope, so 10 seconds (as opposed to 2 hours in IP3 binding assay) of photolysis was sufficient to produce enough IP3 to elicit [Ca^2+ ]i increase. The same amount of UV alone had no effect at all on [Ca^2+ ]i in cells not treated with IP3 -CPM. After recovering from uncaging of IP3 -CPM, the cells responded to subsequent carbachol and thapsigargin stimulation normally.
This confirmed that the [Ca^2+ ]i increase due to uncaging of IP3 -CPM resulted from internal Ca^2+ release, which was consistent with the normal mechanism of IP3 action.

Series [9] has as its system 1321N1 astrocytoma cells. The series can be described thus: Cytosolic free Ca2+ imaging, fura-2. It is filed as cell-based. As to the method: Biological tests on 1321N1 astrocytoma cells were performed similarly to the tests on REF-52 cells (71). The concentration of Cytosolic free Ca^2+ (ordinate, in units of μM) in fura-2-loaded 1321N1 astrocytoma cells is shown as a function of time (abscissa, in units of seconds). At the dotted vertical line labeled 1, 20 μM inositol-1,4,5-triphosphate propionyloxymethyl ester (5a, R=Et, R'=H) was added. […] Subsequently the cells could respond to carbachol (200 μM, delivered at the dotted vertical line labeled 2), a drug that stimulates the endogenous generation of inositol-1,4,5-triphosphate. However, the response to carbachol is depressed by the prior treatment with the inositol-1,4,5-triphosphate propionyloxymethyl ester. Likewise the Ca^2+ response to thapsigargin (100 nM, delivered at the dotted vertical line labeled 3), another drug that releases stored Ca^2+, is depressed.
A test similar to the one shown in FIG. 7 was conducted except that the medium lacked extracellular Ca^2+ and a dose of 60 μM inositol-1,4,5-triphosphate propionyloxymethyl ester was added at the dotted vertical line labeled 1. […] Because no extracellular Ca^2+ was present, this response must have represented release from intracellular Ca^2+ stores. […] The much greater degree of inhibition of the carbachol response compared to the previous example (FIG. 7) is due to the higher dose of the inositol-1,4,5-triphosphate propionyloxymethyl ester and the absence of extracellular Ca^2+, which reduces refilling of Ca^2+ stores.
In a further example, the same test as set forth above was conducted with astrocytoma cells, except that 2 μM inositol-1,4,5-triphosphate butyryloxymethyl ester (5a, R=Pr, R'=H) was used instead of the propionyloxymethyl ester.

The subject of series [10] is REF-52 fibroblasts. Description: Cytosolic free Ca2+ imaging, fura-2. It is filed as cell-based. As to the method: The best-established biological effect of IP3 is to release Ca^2+ from internal stores (26), so IP3 /PM (5a, R=Et, R'=H) was tested by imaging cytosolic free Ca^2+ levels in single REF-52 fibroblasts using standard methodology (58). Cells were loaded with the Ca^2+ -indicator fura-2 and viewed by fluorescence excitation ratioing. IP3 /PM (40 μM) was applied extracellularly while monitoring cytosolic Ca^2+ concentrations.

Setting [11] is: 20 μM compound, with extracellular Ca2+.

cAMP-dependent kinase type I (FICRhR), sequence (P00514 whole entry): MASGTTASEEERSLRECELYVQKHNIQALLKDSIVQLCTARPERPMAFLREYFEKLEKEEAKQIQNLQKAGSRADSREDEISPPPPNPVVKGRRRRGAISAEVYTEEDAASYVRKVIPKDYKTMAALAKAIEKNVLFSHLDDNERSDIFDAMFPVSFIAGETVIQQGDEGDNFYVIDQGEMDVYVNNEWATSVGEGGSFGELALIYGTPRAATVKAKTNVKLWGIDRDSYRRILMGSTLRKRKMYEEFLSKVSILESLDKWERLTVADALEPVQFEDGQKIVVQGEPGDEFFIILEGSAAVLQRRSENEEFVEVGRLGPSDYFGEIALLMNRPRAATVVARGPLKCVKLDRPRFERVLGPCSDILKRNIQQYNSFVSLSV

On to `CCCC(=O)Nc1ncnc2c1ncn2[C@@H]1O[C@@H]2COP(=O)(O)O[C@H]2[C@H]1OC(=O)CCC` [Bt2 cAMP, N^6,O^2' -dibutyryl cAMP, reference compound], for which the “delay and overall time course of PKA activation (in words)” value in [1] (REF-52, extracellular) is “Much the same delay and overall time course”. The “potency relative to cAMP” value in [2] (in vitro binding to FICRhR) is listed as “roughly 1/100”. Besides, in series [3], the “membrane permeability (in words)” value was “poor permeability”. Further, in series [4], the EC50 worked out at 400 µM. Further, the pigment dispersion result in series [5] (1 mM) is on record as “unable to cause any detectable dispersion”.
`CCCC(=O)Nc1ncnc2c1ncn2[C@@H]1O[C@@H]2COP(=O)(OCOC(C)=O)O[C@H]2[C@H]1OC(=O)CCC` (some centres unmarked) [Bt2 cAMP/AM, N^6,O^2' -Dibutyryl Adenosine 3',5'-cyclic Monophosphate Acetoxymethyl Ester]: the “onset of separation of regulatory and catalytic subunit of FICRhR after addition” value in [1] (REF-52, extracellular) is listed as “roughly 2 min”. Besides, the “plateau, % of the maximal change in fluorescence ratio” value in series [1] (REF-52, extracellular 1 μM) is “over 50%”. For the same compound, the “change in fluorescence ratio (PKA activation)” value in [1] (REF-52, extracellular 10 μM, within 15 min) was “maximal change in fluorescence ratio within 15 min”. The “separation of the subunits of FICRhR (in words)” value in series [2] (in vitro, 10 μM) is “no separation of the subunits”. In addition, the EC50 in [4] is 2 µM. The “increase in potency by acetoxymethyl group vs Bt2 cAMP” value in series [4] (T84) was found to be 200 fold. Besides, the “kinetics of activation of chloride secretion (in words)” value in [4] (T84, Bt2 cAMP/AM vs Bt2 cAMP) is reported as “essentially indistinguishable kinetics of activation”. The “increase in potency by AM ester group vs Bt2 cAMP” value in [5] is reported as “more than 1000”. Also, the pigment dispersion entry in series [5] (100 μM) is reported as “essentially complete dispersal”. For the same compound, the results for the reversibility of dispersion entry in series [5] (100 μM) and in series [5] (1 mM) were “easily reversed” and “could not be readily reversed”, respectively. The onset of dispersion entry in series [5] (1 mM, vs 100 μM) is “slightly faster onset of action”.
Take `COc1cc(CO[C@@H]2[C@@H](OP(=O)(O)O)[C@H](OP(=O)(O)O)[C@H]3OC(OC)O[C@H]3[C@H]2OP(=O)(O)O)c([N+](=O)[O-])cc1OC` (stereo partly drawn) [Compound V-16, D-2,3-O-methoxymethylene-6-O-(4,5-dimethoxy-2-nitrobenzyl)-myo-inositol 1,4,5-trisphosphate]: the “amount of authentic IP3 equivalent in binding activity to crude photolysis product from 100 pmol V-16” value in series [6] (after about 2 h photolysis) stood at 32 pmol. In series [6] (photolysis at 366 nm), the “binding to the receptor upon photolysis” value was “UV-dose-dependent increase of binding” and the “time at which binding leveled off on photolysis” value is on record as “about 2 hours”. Besides, in [6] (without photolysis), the “affinity to IP3 R / binding to cerebellar microsomes (in words)” value is reported as “negligible binding”. In addition, in series [7] (in cells), the “phosphatase degradation / metabolic stability (in words)” value is “metabolically fairly stable; also recorded: fairly resistant to phosphatase degradation” and the “retention in cells (in words)” value is given as “well retained in cells; also recorded: could be trapped inside cells for a long period of time without losing much of its activity”. Moreover, in series [8] (caged IP3 analog released inside cells), the “releasing Ca2+ without photolysis” value was “inactive in releasing Ca^2+”.
Turning to `COC1O[C@@H]2[C@@H](OP(=O)(O)O)[C@H](OP(=O)(O)O)[C@@H](O)[C@H](OP(=O)(O)O)[C@@H]2O1` (stereo partly drawn) [D-2,3-methoxymethylene-myo-inositol 1,4,5-trisphosphate], the “affinity for IP3 receptor, fold weaker than IP3” value in series [6] (assuming 100% chemical yield of uncaged product) is 3 fold. Further, the “affinity to IP3 R relative to IP3” value in [6] (photolysis product) was “at least one third”. The “phosphorylation into 1,3,4,5-IP4 (in words)” value in series [7] is reported as “can not be phosphorylated into 1,3,4,5-IP4”. The “internal Ca2+ release upon photolysis (in words)” value in [8] (photolysis product of V-16 in cells) is given as “induced internal Ca^2+ release”.
For the compound `CCC(=O)OCOP(=O)(OCOC(=O)CC)O[C@@H]1[C@H](O)[C@H](O)[C@@H](OP(=O)(OCOC(=O)CC)OCOC(=O)CC)[C@H](OP(=O)(OCOC(=O)CC)OCOC(=O)CC)[C@H]1O` [IP3 /PM, D-myo-inositol-1,4,5-triphosphate propionyloxymethyl ester], the “response to subsequent carbachol (200 μM)” value is “depressed” in [9] (setting [11]) and “greatly depressed” in series [9] (60 μM compound, no extracellular Ca2+). Further, the “response to subsequent thapsigargin (100 nM)” value in series [9] (setting [11]) is recorded as “depressed”. The “delay of Ca2+ elevation” value is “about 100 second” in series [9] (20 μM, with extracellular Ca2+) and about 50 s in [9] (60 μM, no extracellular Ca2+). Besides, the “elevation of cytosolic Ca2+” value was “sizable elevation of cytosolic Ca^2+” in series [9] (20 μM, with extracellular Ca2+) and “sizable elevation of cytosolic Ca^2+” in series [9] (60 μM, no extracellular Ca2+). Moreover, the “effect of subsequent vasopressin after compound” value in series [10] (REF-52, 40 μM compound) is on record as “much less effect than normal”. For the same compound, in series [10] (REF-52, 40 μM extracellular), the “cytosolic Ca2+ concentration” value is reported as “increased rapidly”. Besides, the “Ca2+ release from internal stores (in words)” value in [10] (intact REF-52 fibroblasts and astrocytoma cells) is “released Ca^2+ from internal stores”.

Values taken from patent US5866548A, “Caged membrane-permeant inositol phosphates” (priority 1996, dated 1999).
